Source: publication PMC12281487, “Discovery and Validation of a Novel Class of Necroptosis Inhibitors Targeting RIPK1” (ACS Chemical Biology, 2025)
“Also recorded” adds a separate entry of the source. Counter-ions that a name gives are not always drawn. Like-named read-outs stand apart in the source and are kept apart here. One block for each molecule: values may come before it.

How the values were obtained:
[1] = tested on: RIPK1 Ser166 phosphorylation; test: Western blot of RIPK1 Ser166 phosphorylation in I2.1 cells; format: cell-based, human; settings: for phosphorylation of RIPK1 Ser166 after TNF: prior treatment with 10 μM compound
Method: All compound treatments were performed with a preprepared 1000× stock of the desired concentration in DMSO and added directly to the relevant plate, with a final concentration of 0.1% DMSO on the cells. TNF (final concentration 575 pM) was added to induce necroptosis, the cells incubated for 4 h and harvested.
(§1) Cells were transferred to a microcentrifuge tube and centrifuged at 200g for 5 min, and media were removed. Cells were washed with PBS and lysed with 100 μL of lysis buffer (radioimmunoprecipitation assay lysis buffer, Sigma-Aldrich, R0278) supplemented with 1× phosphatase inhibitor cocktail 2 (Sigma, P5726) and 1× complete EDTA-free protease inhibitor cocktail (Sigma, […])) on ice for 30 min. The lysate was collected by centrifugation at 17,000g, 4 °C for 5 min, and the lysate was transferred to a new microcentrifuge tube. Protein concentration was determined using the DC Protein Assay (Bio-Rad) in a 96-well plate as per the manufacturer’s instructions and subsequently adjusted to 1 mg mL^–1 using lysis buffer. Samples were prepared by adding 4 μL of 4× loading buffer (Biorad, 161-0747) containing β-mercaptoethanol to 12 μL of protein sample and boiling at 95 °C for 10 min. 14 μL of each sample was loaded onto a 4–15% Mini-PROTEAN TGX precast gel (Biorad, 456-1086) and run in 1× running buffer (0.25 M Tris, 0.2 M glycine, 0.1% (w/v) SDS) for 1.15 h at 130 V. Either 2 μL of precision plus protein all blue prestained protein standards (Bio-Rad, 1610373) or precision plus protein dual color standards (Bio-Rad, 1610374) was used in at least one well.
Proteins were transferred onto a nitrocellulose membrane (GE Healthcare) using the Trans-Blot Turbo Transfer System (Biorad, 1704150) at 2.5 A and 25 V for 7 min. The membrane was stained with Ponceau S to confirm protein transfer prior to blocking with 5% (w/v) nonfat dried skimmed milk in TBS-T (1× Tris-buffered saline, 0.1% (v/v) Tween-20) at rt for 1 h. Staining with the desired primary antibody in 5% (w/v) nonfat dried skimmed milk in TBS-T was performed overnight at 4 °C. The blot was washed with TBS-T at rt (3 × 5 min) and stained with secondary antibody in 5% (w/v) nonfat dried skimmed milk in TBS-T for 1 h at rt. The blot was washed with TBS-T at rt (3 × 5 min), visualized with Immobilon Crescendo Western HRP substrate, and imaged using ImageQuant LAS-4000 Imaging System (Fujifilm), and the contrast normalized in Fiji.

RIPK1 = biological target: T1, RIPK1 (Homo sapiens, UniProt Q13546); test: Streptavidin mass shift assay (photoaffinity labeling, target engagement) in I2.1 cells; format: cell-based; settings: particularly after 5 min of UV irradiation
T1 construct: Following incubation of I2.1 cells with the probe, irradiation to induce photocrosslinking; endogenous in cells; host or cells: I2.1 FADD-deficient Jurkat T cells (ATCC, CRL-2572)
T1 sequence (Q13546 1-671): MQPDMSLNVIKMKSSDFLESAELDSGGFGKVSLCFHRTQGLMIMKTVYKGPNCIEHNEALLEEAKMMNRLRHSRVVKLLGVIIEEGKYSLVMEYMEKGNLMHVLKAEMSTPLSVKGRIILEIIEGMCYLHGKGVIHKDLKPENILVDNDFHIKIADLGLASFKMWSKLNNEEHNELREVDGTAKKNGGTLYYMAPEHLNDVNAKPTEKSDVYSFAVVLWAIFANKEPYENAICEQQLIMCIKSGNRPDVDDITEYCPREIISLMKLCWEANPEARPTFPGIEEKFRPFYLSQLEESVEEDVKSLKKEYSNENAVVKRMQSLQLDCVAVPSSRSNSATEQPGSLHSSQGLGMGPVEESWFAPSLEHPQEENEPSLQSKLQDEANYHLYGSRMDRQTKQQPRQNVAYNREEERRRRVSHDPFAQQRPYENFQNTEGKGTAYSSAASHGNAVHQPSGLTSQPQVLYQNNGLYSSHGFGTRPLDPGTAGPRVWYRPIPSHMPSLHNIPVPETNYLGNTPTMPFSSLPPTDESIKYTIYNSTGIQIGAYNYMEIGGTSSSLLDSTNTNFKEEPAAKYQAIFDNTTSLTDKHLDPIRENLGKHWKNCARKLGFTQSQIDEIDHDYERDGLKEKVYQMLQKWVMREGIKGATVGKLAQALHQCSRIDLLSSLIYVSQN
Method: Target engagement was confirmed by Streptavidin mass shift assay, whereby lysates are incubated with streptavidin and subsequently separated by SDS–PAGE. The high stability of streptavidin at a range of temperatures, in various detergents and pH, in combination with the extremely high affinity for biotin means the streptavidin–biotin interaction is not separated during gel electrophoresis, resulting in a mass shift of biotin-labeled proteins in the presence of streptavidin, which can be visualized by Western blot (Figure a).
I2.1 cells were seeded in sterile six-well plates at a density of 2 × 10^6 cells per well and incubated at 37 °C overnight. 1000× stocks of the desired concentration of compound in DMSO were preprepared. […]
Cells were transferred to a microcentrifuge tube, centrifuged at 200g for 5 min, and media removed. […] Protein concentration was determined using the DC Protein Assay (Bio-Rad) in a 96-well plate as per the manufacturer’s instructions and the concentration adjusted to 1–2 mg mL^–1 using lysis buffer. […]
Samples were prepared by adding 4 μL of 4× loading buffer to 10 μL of the protein samples and boiling at 95 °C for 10 min. […] In-gel fluorescence was detected by using a Typhoon FLA 9500 biomolecular imager (750 V, 100 μm pixels). […]

[2] = tested on: I2.1 FADD–/– human Jurkat cells; test: IncuCyte necroptosis assay in I2.1 cells; settings: for EC50: read-out: EC50 (95% CI), necroptosis inhibition; for EC50 values of well-characterized necroptosis inhibitors (assay validation), in words: Figure S1e
Method: A cell-based assay was established to monitor necroptosis in I2.1 cells using the IncuCyte S3 live cell microscopy platform (Figure S1a). Necroptosis was induced by treatment with TNF, and Sytox Green was used to monitor membrane permeabilization over time as an indicator of progressive necroptotic cell death (Figure S1b–d), allowing determination of the EC50 of candidate necroptosis inhibitors.
I2.1 cells were seeded in a sterile 96-well plate (Greiner) at 20,000 cells per well and incubated at 37 °C overnight. The cells were treated with a final concentration of 600 pM TNF, 1 μM Sytox Green, and compounds in a dose-dependent manner. Wells containing TNF and Sytox Green served as positive control. Wells containing DMSO and Sytox Green served as a negative control. The plate was placed into an IncuCyte S3 Live Cell Analysis System (Sartorius) and readings for phase and green fluorescence were taken every hour for 24 h, with 4 images per well. The images were analyzed with IncuCyte 2021C software and the Green Integrated Intensity Per Image/Phase Area Per Image (GCU × μm^2/image/μm^2/image or GP) was exported. The background at t = 0 h was subtracted, and the linear slope (t = 3–7 h) was calculated by plotting GP against time. The percent inhibition of necroptosis was determined by normalizing to the positive and negative controls and graphing against the [compound]. EC50 values were determined using Prism 10 for each replicate, which were then used to calculate the geometric mean EC50 and associated 95% CIs.
I2.1 cells in a 96-well plate were treated with TNF to induce necroptosis, a dilution series of the candidate necroptosis inhibitor and Sytox Green to monitor cell death. Plates were placed in the IncuCyte® and imaged every hour for 24 h. Cell death was measured over time and used to determine the proportion of necroptotic cells compared to those without necroptosis induction or not treated with an inhibitor. The linear portion of the graph was used to determine an initial rate for calculation of the EC50. TNF with Sytox Green and Sytox Green alone were used as positive and negative controls, respectively. […] EC50 values are expressed as the geometric mean with a 95% confidence interval (CI) of at least three biological replicates.

Aurora kinase B = Aurora kinase B (Homo sapiens, UniProt Q96GD4); test: Kinase panel screen (SelectScreen, Z-lyte); format: biochemical; settings: single concentration of 1 µM, % inhibition, Figure S2c
Method: (a) Western blot analysis of RIPK1, RIPK3 and MLKL phosphorylation in HT-29 cells with treatment of necroptosis inhibitors and the 7PQ series. Results are representative of two experiments. […] Results are representative of two experiments. (c) Kinase activity panel screen. Compounds were screened at a single concentration of 1 µM at Thermofisher.
The kinase data was provided by Thermofisher SelectScreen Biochemical Kinase Profiling service using the Z-lyte technology. Each compound was profiled at […] against a representative panel of 25 kinases.

C57BL/6J mice = test: TNF-induced SIRS murine model; settings: 5 mg/kg i.v. 15 min before TNF 0.5 mg/kg i.v.
Method: Male C57BL/6J mice of 18–25 g were used at the age of 6–8 weeks. Three animals were included in each experimental group. All animal experiments were carried out with the permission of the local animal ethical committee in accordance with the EU Directive (2010/63/EU), Portuguese laws (DL113/2013, 2880/2015, 260/2016), and all relevant legislations. Animals received humane care in a temperature-controlled environment with a 12 h light–dark cycle and ad libitum access to pelleted chow and water, complying with the Institute’s guidelines, and as outlined in the “Guide for the Care and Use of Laboratory Animals” prepared by the National Academy of Sciences and published by the National Institutes of Health (NIH publication 86-23 revised 1985). […] TNF was diluted in sterile PBS. […] All injections were administered intravenously (i.v.).

HT-29 cells = test: IncuCyte necroptosis assay in HT-29 cells; format: cell-based, human; settings: TNF, birinapant and Z-VAD-FMK induced; Figure S1f
Source text: Wells containing TSZ served as a positive control.

[3] = tested on: RIPK1, RIPK3 and MLKL phosphorylation; test: Western blot of RIPK1, RIPK3 and MLKL phosphorylation in HT-29 cells; format: cell-based, human; settings: TNF, birinapant and Z-VAD-FMK
Method: All compound treatments were performed with a preprepared 1000× stock of the desired concentration and added directly to the relevant plate with a final concentration of 0.1% DMSO on the cells. A combination of TNF (final concentration of 1.2 nM), Birinapant (final concentration 100 nM), and Z-VAD-FMK (final concentration 20 μM) was added to induce necroptosis, the cells incubated for 7 h, and harvested.
as §1, with “14 μL of each sample was loaded onto a 4–15% Mini-PROTEAN TGX precast gel (Biorad, 456-1086) and run in 1× running buffer (0.25 M Tris, 0.2 M glycine, 0.1% (w/v) SDS) for 1.15 h at 130 V. Either 2 μL of precision plus protein all blue prestained protein standards (Bio-Rad, 1610373) or precision plus protein dual color standards (Bio-Rad, 1610374) was used in at least one well.” left out

[4] = TNF-induced necroptosis, I2.1 cells, Sytox Green, geometric mean with 95% CI, at least three biological replicates

Chain of Aurora kinase B (Q96GD4 whole entry): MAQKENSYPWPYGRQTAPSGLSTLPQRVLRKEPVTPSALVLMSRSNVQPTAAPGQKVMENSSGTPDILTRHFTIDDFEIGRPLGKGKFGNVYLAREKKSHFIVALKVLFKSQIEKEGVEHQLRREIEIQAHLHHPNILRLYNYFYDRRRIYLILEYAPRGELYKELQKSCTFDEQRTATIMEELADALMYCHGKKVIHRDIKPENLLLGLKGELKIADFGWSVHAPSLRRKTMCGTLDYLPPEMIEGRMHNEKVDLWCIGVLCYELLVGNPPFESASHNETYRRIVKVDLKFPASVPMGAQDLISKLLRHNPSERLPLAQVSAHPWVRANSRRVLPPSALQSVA

engagement of RIPK1 by the probe (streptavidin-shifted band) (RIPK1): Dose-dependent engagement of RIPK1
Molecule: C#CCN(CCC1(C)N=N1)S(=O)(=O)c1ccc(-c2ccc3cccnc3c2)cc1 [7PQYnD, N-(2-(3-Methyl-3H-diazirin-3-yl)ethyl)-N-(prop-2-yn-1-yl)-4-(quinolin-7-yl)benzenesulfonamide]
phosphorylation of RIPK1 Ser166 after TNF [1]: blocked
EC50 ([2]; Homo sapiens, Jurkat): 8.9 µM
fold less potent than the parent compounds AZ’902 and AZ’320 (necroptosis inhibition) ([2]; I2.1 cells): 2–5 fold

Molecule: CS(=O)(=O)CC1CN(S(=O)(=O)c2ccc(-c3ccc4cccnc4c3)cc2)C1 [AZ’320, 7-(4-((3-((Methylsulfonyl)methyl)azetidin-1-yl)sulfonyl)phenyl)quinoline]
dose dependence of the effect on phosphorylation of RIPK1 Ser166 [1]: dose dependent
off-target activity in a panel of 25 kinases (Aurora kinase B): off–target activity observed primarily against Aurora kinase B
effects on temperature and body weight after TNF (C57BL/6J mice): rescuing effects on temperature and body weight
protection from TNF-induced mortality (survival) (C57BL/6J mice; 3 mice per group): completely reverted the toxic effects induced by TNF; also recorded: preventing mortality
EC50 ([2]; Homo sapiens, Jurkat): 4.9 µM

Molecule: CC(=O)N1CC[C@H](CN(C)S(=O)(=O)c2ccc(-c3ccc4cccnc4c3)cc2)C1 [AZ’902, (S)-N-((1-Acetylpyrrolidin-3-yl)methyl)-N-methyl-4-(quinolin-7-yl)benzenesulfonamide]
necroptosis inhibition activity in HT-29 cells (HT-29 cells): confirmed
dose dependence of the effect on phosphorylation of RIPK1 Ser166 [1]: dose dependent
phosphorylation of RIPK1 Ser166 after TNF [1]: blocked
off-target activity in a panel of 25 kinases (Aurora kinase B): off–target activity observed primarily against Aurora kinase B
EC50 ([2]; Homo sapiens, Jurkat): 1.6 µM

Molecule: CC(C)S(=O)(=O)c1ccc2nccc(Nc3ccc4scnc4c3)c2c1 [GSK’872, reference compound]
phosphorylation of RIPK1 Ser166 after TNF [1]: no inhibition
phosphorylation of necrosome components (RIPK1, RIPK3, MLKL) [3]: inhibited phosphorylation of RIPK3 and MLKL but not RIPK1
EC50 values of well-characterized necroptosis inhibitors (assay validation), in words ([2]; I2.1 cells): consistent with those previously reported

Molecule: COc1nccnc1NS(=O)(=O)c1ccc(NC(=O)/C=C/c2ccc([N+](=O)[O-])s2)cc1 [NSA, Necrosulfonamide, reference compound]
phosphorylation of necrosome components (RIPK1, RIPK3, MLKL) [3]: retained phosphorylation of all components of the necrosome
EC50 values of well-characterized necroptosis inhibitors (assay validation), in words ([2]; I2.1 cells): consistent with those previously reported

Molecule: CN1C(=O)NC(Cc2c[nH]c3c(Cl)cccc23)C1=O (centres unmarked) [Nec-1s, reference compound]
EC50 values of well-characterized necroptosis inhibitors (assay validation), in words ([2]; I2.1 cells): consistent with those previously reported

Molecule: CC(=O)N1CC[C@@H](CN(C)S(=O)(=O)c2ccc(-c3ccc4cccnc4c3)cc2)C1 [compound 1, (R)-N-((1-Acetylpyrrolidin-3-yl)methyl)-N-methyl-4-(quinolin-7-yl)benzenesulfonamide]
EC50 ([2]; Homo sapiens, Jurkat): 1 µM

Molecule: CN(C[C@H]1CCNC1)S(=O)(=O)c1ccc(-c2ccc3cccnc3c2)cc1 [compound 2, (S)-N-Methyl-N-(pyrrolidin-3-ylmethyl)-4-(quinolin-7-yl)benzenesulfonamide·HCl]
EC50 ([2]; Homo sapiens, Jurkat): 1.7 µM

Molecule: CC(C)(C)OC(=O)N1CC[C@H](CNC(=O)c2ccc(-c3ccc4cccnc4c3)cc2)C1 [compound 4, tert-Butyl (R)-3-((4-(Quinolin-7-yl)benzamido)methyl)pyrrolidine-1-carboxylate]
EC50 ([2]; Homo sapiens, Jurkat): 3 µM

Molecule: CC(C)(C)OC(=O)N1CC[C@@H](NC(=O)c2ccc(-c3ccc4cccnc4c3)cc2)C1 [compound 5, tert-Butyl (R)-3-(4-(Quinolin-7-yl)benzamido)pyrrolidine-1-carboxylate]
EC50 ([2]; Homo sapiens, Jurkat): 6.7 µM

Molecule: O=C(c1ccc(-c2ccc3cccnc3c2)cc1)N1CCOCC1 [compound 6, Morpholino(4-(quinolin-7-yl)phenyl)methanone]
EC50 ([2]; Homo sapiens, Jurkat): 23 µM

Molecule: O=C(c1ccc(-c2ccc3ccncc3c2)cc1)N1CCOCC1 [compound 7, (4-(Isoquinolin-7-yl)phenyl)(morpholino)methanone]
EC50 (95% CI), necroptosis inhibition [2, 4]: Inactive

Molecule: O=C(c1ccc(-c2ccc3cnccc3c2)cc1)N1CCOCC1 [compound 8, (4-(Isoquinolin-6-yl)phenyl)(morpholino)methanone]
EC50 (95% CI), necroptosis inhibition [2, 4]: Inactive

Molecule: O=C(c1ccc(-c2ccc3ncccc3c2)cc1)N1CCOCC1 [compound 9, Morpholino(4-(quinolin-6-yl)phenyl)methanone]
EC50 (95% CI), necroptosis inhibition [2, 4]: Inactive

Molecule: O=C(c1ccc(-c2cnc3ccccc3c2)cc1)N1CCOCC1 [compound 10, Morpholino(4-(quinolin-3-yl)phenyl)methanone]
EC50 (95% CI), necroptosis inhibition [2, 4]: Inactive

Molecule: O=C(c1ccc(-c2ccc3ccccc3n2)cc1)N1CCOCC1 [compound 11, Morpholino(4-(quinolin-2-yl)phenyl)methanone]
EC50 (95% CI), necroptosis inhibition [2, 4]: Inactive

Molecule: O=C(c1ccc(-c2ccc3nccnc3c2)cc1)N1CCOCC1 [compound 12, Morpholino(4-(quinoxalin-6-yl)phenyl)methanone]
EC50 (95% CI), necroptosis inhibition [2, 4]: Inactive; also recorded: loss of activity

Molecule: tert-Butyl(S)-3-(((N-methyl-4-(quinolin-7-yl)phenyl)sulfonamido)methyl)pyrrolidine-1-carboxylate [compound 3]
EC50 [2, 4]: 2.5 µM
